Source: the supplement of paper PMC10331698
± gives the standard deviation of the averaged measurements.

Assays:
Test in all cases: level (log10 ratio to DMSO vehicle control); higher = higher biomarker level / cell amount than vehicle control
Conditions in all cases: in DMSO
[1] = compound: C=C(C)C(=O)OCC(F)(F)C(F)(F)C(F)(F)F [2,2,3,3,4,4,4-Heptafluorobutyl methacrylate]
Experimental: (§1)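 BioMAP Diversity Plus panel of 12 human primary cell co-culture systems (3C, 4H, LPS, SAg, BT, BF4T, BE3C, CASM3C, HDF3CGF, KF3CT, MyoF, Mphg). Compounds were added 1 h before stimulation and left for 24 h (MyoF 48 h; BT 72 h for soluble read-outs or 6 d for IgG). Biomarkers were read by ELISA, cytotoxicity by SRB, PBMC viability and proliferation by Alamar Blue. Each well value was divided by the mean of 8 DMSO control wells on the same plate and log10 transformed; duplicate blinded samples were tested at 4 concentrations.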

[2] = compound: O=C(CC(=O)C(F)(F)C(F)(F)C(F)(F)F)c1cccs1 [(Perfluorobutyryl)-2-thenoylmethane]
Experimental: as §1

[3] = compound: O=C(Cl)C(F)(F)C(F)(F)C(F)(F)C(=O)Cl [Hexafluoroglutaryl chloride]
Experimental: as §1

Tetrafluorosuccinic acid = compound: O=C(O)C(F)(F)C(F)(F)C(=O)O [Tetrafluorosuccinic acid]
Experimental: as §1

[4] = compound: O=S(=O)(O)CCC(F)(F)C(F)(F)C(F)(F)C(F)(F)F [4:2 Fluorotelomer sulfonic acid]
Experimental: as §1

[5] = compound: O=S(=O)(OCC(F)(F)F)C(F)(F)C(F)(F)C(F)(F)C(F)(F)F [2,2,2-Trifluoroethyl perfluorobutanesulfonate]
Experimental: as §1

Perfluoropinacol = compound: OC(C(F)(F)F)(C(F)(F)F)C(O)(C(F)(F)F)C(F)(F)F [Perfluoropinacol]
Experimental: as §1

Test System | level (log10) ([1]; 6700 nM) | level (log10) ([1]; 20000 nM) | level (log10) ([1]; 60000 nM) | level (log10) ([2]; 6700 nM) | level (log10) ([2]; 20000 nM) | level (log10) ([3]; 6700 nM) | level (log10) ([3]; 20000 nM) | level (log10) ([3]; 60000 nM) | level (log10) (Tetrafluorosuccinic acid; 6700 nM) | level (log10) (Tetrafluorosuccinic acid; 20000 nM) | level (log10) (Tetrafluorosuccinic acid; 60000 nM) | level (log10) ([4]; 6700 nM) | level (log10) ([4]; 20000 nM) | level (log10) ([4]; 60000 nM) | level (log10) ([5]; 6700 nM) | level (log10) ([5]; 20000 nM) | level (log10) ([5]; 60000 nM) | level (log10) (Perfluoropinacol; 6700 nM) | level (log10) (Perfluoropinacol; 20000 nM)
BE3C:CD54/ICAM-1 | 0.009 ± 0.023 | -0.004 ± 0.034 | 0.005 ± 0.0014 | -0.0075 ± 0.0064 | -0.102 ± 0.0064 | 0.002 ± 0.0071 | -0.002 ± 0.017 | 0.0075 ± 0.025 | 0.0015 ± 0.025 | 0.0065 ± 0.00071 | 0.0115 ± 0.00071 | -0.004 ± 0.0085 | -0.009 ± 0.014 | -0.0155 ± 0.0021 | -0.002 ± 0.0071 | -0.013 ± 0.0071 | -0.018 ± 0.0057 | -0.003 ± 0.0085 | -0.0095 ± 0.0035
BE3C:CD87/uPAR | -0.004 ± 0.0028 | 0.0075 ± 0.015 | 0.017 ± 0.027 | 0.013 ± 0.0028 | -0.007 ± 0.0014 | -0.0055 ± 0.0021 | -0.009 ± 0.0028 | 0.011 ± 0.0085 | 0.0095 ± 0.021 | -0.0045 ± 0.00071 | 0.012 ± 0.014 | 0.002 ± 0.02 | -0.004 ± 0.021 | -0.007 ± 0.0071 | -0.048 ± 0.0099 | -0.024 ± 0.018 | -0.0355 ± 0.026 | -0.0675 ± 0.019 | -0.231 ± 0.016
BE3C:CXCL8/IL-8 | 0.016 ± 0.042 | -0.008 ± 0.031 | 0.013 ± 0.058 | -0.0905 ± 0.013 | -0.01 ± 0.023 | 0.0585 ± 0.046 | 0.0345 ± 0.077 | 0.0555 ± 0.083 | 0.0325 ± 0.052 | 0.0315 ± 0.071 | 0.0525 ± 0.0064 | 0.0165 ± 0.023 | -0.009 ± 0.0085 | 0.0175 ± 0.0064 | 0.001 ± 0.0071 | -0.0035 ± 0.026 | 0.0225 ± 0.021 | -0.049 ± 0.0014 | -0.203 ± 0.021
BE3C:CXCL9/MIG | 0.003 ± 0.0085 | 0.0025 ± 0.0035 | 0.01 ± 0.0071 | -0.0095 ± 0.016 | -0.142 ± 0.0028 | 0.018 ± 0.011 | 0.007 ± 0.0099 | 0.0065 ± 0.022 | 0.005 ± 0.0071 | 0 ± 0.0085 | 0.0075 ± 0.0092 | -0.003 ± 0.0057 | -0.005 ± 0.0099 | 0.0095 ± 0.012 | 0.031 ± 0.0085 | 0.0065 ± 0.0078 | 0.0135 ± 0.0021 | -0.0045 ± 0.015 | 0.002 ± 0.0071
BE3C:CXCL10/IP-10 | 0.0365 ± 0.029 | 0.0225 ± 0.04 | 0.0135 ± 0.035 | -0.0615 ± 0.00071 | -0.578 ± 0.018 | 0.0325 ± 0.035 | 0.032 ± 0.028 | 0.0265 ± 0.043 | -0.007 ± 0.0028 | -0.009 ± 0.0057 | -0.0125 ± 0.0035 | -0.0055 ± 0.00071 | -0.006 ± 0.0085 | -0.0035 ± 0.011 | 0.021 ± 0.0057 | 0.003 ± 0.0028 | 0.011 ± 0.011 | -0.0315 ± 0.0035 | -0.118 ± 0.0071
BE3C:CXCL11/I-TAC | 0.0215 ± 0.03 | 0.0225 ± 0.005 | 0.017 ± 0.0085 | -0.01 | -0.28 ± 0.011 | 0.0285 ± 0.015 | 0.0105 ± 0.046 | 0.021 ± 0.031 | 0.002 ± 0.0042 | -0.0025 ± 0.0092 | -0.002 ± 0.0014 | 0.008 ± 0.0042 | 0.043 ± 0.033 | 0.0485 ± 0.0092 | 0.017 ± 0.0057 | -0.003 ± 0.0085 | 0.006 ± 0.0085 | 0.0435 ± 0.00071 | 0.0115 ± 0.021
BE3C:EGFR | 0.0195 ± 0.03 | 0.0155 ± 0.029 | 0.012 ± 0.017 | -0.0725 ± 0.029 | -0.094 ± 0.041 | 0.009 ± 0.0099 | 0.0015 ± 0.0021 | -0.0345 ± 0.0092 | -0.008 ± 0.0042 | -0.0055 ± 0.019 | 0.003 ± 0.0042 | 0.0115 ± 0.00071 | -0.009 ± 0.0014 | 0.002 ± 0.0085 | 0.006 ± 0.0028 | 0.007 | 0.0025 ± 0.00071 | 0.0065 ± 0.00071 | -0.027 ± 0.0085
BE3C:HLA-DR | -0.0005 ± 0.015 | 0.006 ± 0.016 | 0.003 ± 0.035 | -0.044 ± 0.0028 | -0.41 ± 0.032 | -0.0075 ± 0.013 | -0.016 ± 0.0057 | -0.007 ± 0.0071 | -0.027 ± 0.0028 | -0.0045 ± 0.0035 | 0.004 ± 0.0014 | -0.013 ± 0.0085 | 0.003 ± 0.0042 | -0.0225 ± 0.0021 | -0.001 ± 0.011 | 0.005 ± 0.0085 | -0.011 ± 0.0014 | -0.0145 ± 0.0064 | -0.0565 ± 0.019
BE3C:IL-1alpha | -0.003 ± 0.017 | -0.019 ± 0.0057 | -0.007 ± 0.011 | -0.0165 ± 0.00071 | -0.19 ± 0.005 | -0.014 ± 0.025 | -0.017 ± 0.0042 | 0.0025 ± 0.005 | 0.019 ± 0.013 | 0.009 ± 0.02 | 0.0385 ± 0.012 | -0.011 ± 0.0014 | -0.011 ± 0.013 | 0.0045 ± 0.0092 | 0.0045 ± 0.011 | 0.0025 ± 0.0078 | 0.015 ± 0.013 | -0.041 ± 0.021 | -0.093 ± 0.0071
BF4T:CCL2/MCP-1 | 0.026 ± 0.0042 | 0.0355 ± 0.0021 | 0.0345 ± 0.022 | -0.097 ± 0.018 | -0.306 ± 0.093 | -0.0225 ± 0.00071 | -0.009 ± 0.0028 | -0.0185 ± 0.005 | -0.007 ± 0.0028 | -0.0135 ± 0.0064 | -0.0215 ± 0.016 | 0.0145 ± 0.037 | 0.0075 ± 0.00071 | 0.0395 ± 0.022 | 0.024 ± 0.0028 | 0.0125 ± 0.005 | 0.017 ± 0.021 | 0.0435 ± 0.032 | -0.0175 ± 0.015
BF4T:CCL26/Eotaxin-3 | 0.032 ± 0.069 | 0.0385 ± 0.05 | 0.0235 ± 0.052 | -0.181 ± 0.0035 | -0.464 ± 0.018 | 0.023 ± 0.031 | 0.017 ± 0.033 | 0.035 ± 0.045 | 0.018 ± 0.04 | -0.02 ± 0.04 | -0.0075 ± 0.015 | -0.002 ± 0.052 | -0.0065 ± 0.029 | 0.056 ± 0.047 | -0.0015 ± 0.016 | -0.018 ± 0.0071 | -0.014 ± 0.037 | -0.108 ± 0.0042 | -0.217 ± 0.0057
BF4T:CD54/ICAM-1 | -0.0025 ± 0.022 | -0.0085 ± 0.021 | -0.005 ± 0.023 | 0.011 ± 0.017 | -0.0745 ± 0.00071 | 0.0065 ± 0.0064 | -0.004 | 0.016 ± 0.017 | -0.0145 ± 0.013 | -0.018 ± 0.0042 | -0.0295 ± 0.0021 | -0.0085 ± 0.011 | -0.0125 ± 0.0092 | 0.006 ± 0.038 | -0.0115 ± 0.016 | -0.014 ± 0.037 | -0.0295 ± 0.016 | -0.0015 ± 0.011 | -0.018 ± 0.0028
BF4T:CD90 | 0 ± 0.0071 | -0.004 ± 0.0057 | -0.007 ± 0.0042 | -0.014 ± 0.0085 | -0.062 ± 0.027 | 0.0005 ± 0.013 | -0.002 ± 0.018 | -0.0035 ± 0.0035 | -0.0115 ± 0.012 | -0.015 ± 0.024 | -0.017 ± 0.0042 | -0.0075 ± 0.0092 | -0.018 ± 0.0042 | -0.011 ± 0.014 | 0.004 ± 0.0099 | -0.007 ± 0.023 | -0.009 ± 0.011 | -0.015 ± 0.017 | -0.024 ± 0.0071
BF4T:CD106/VCAM-1 | 0.009 ± 0.013 | -0.021 ± 0.011 | -0.0245 ± 0.0035 | 0.0215 ± 0.052 | -0.236 ± 0.063 | -0.0385 ± 0.039 | -0.022 ± 0.058 | -0.058 ± 0.0085 | 0.0205 ± 0.0092 | -0.0155 ± 0.029 | -0.033 ± 0.021 | -0.0045 ± 0.0078 | -0.018 ± 0.0028 | 0.0085 ± 0.046 | -0.0135 ± 0.07 | -0.0035 ± 0.074 | -0.049 ± 0.027 | -0.0455 ± 0.0021 | -0.096
